Here are results for three molecules from ChEMBL document CHEMBL4825753 (J Med Chem, 2021).

One data set concerns MC-38. The data set can be described thus: Antitumour activity against mouse MC38 cells implanted in C57BL6 mouse assessed as increase in survival at 100 mg/kg, po bid for 2 weeks co-treatment with anti-PD1 further treated with ionizing radiation. The data set is classed as functional, organism-based.
Data set [1] in a line: AUC in C57BL/6J mouse at 100 mg/kg, po measured up to 24 hrs. The data set is classed as ADME, organism-based. The arrangement: route oral, dose 100 mg/kg, time <=24. Conditions: in vivo.
For another data set, the system named is BaF3. The data set can be described thus: Growth inhibition of mouse BaF3 cells assessed as inhibition of cell growth incubated for 72 hrs by Cell-titer-Glo assay. The data set is classed as functional.
Data set [2] concerns the target T1, Tyrosine-protein kinase receptor UFO (Homo sapiens, UniProt P30530).
T1 sequence (P30530 whole entry): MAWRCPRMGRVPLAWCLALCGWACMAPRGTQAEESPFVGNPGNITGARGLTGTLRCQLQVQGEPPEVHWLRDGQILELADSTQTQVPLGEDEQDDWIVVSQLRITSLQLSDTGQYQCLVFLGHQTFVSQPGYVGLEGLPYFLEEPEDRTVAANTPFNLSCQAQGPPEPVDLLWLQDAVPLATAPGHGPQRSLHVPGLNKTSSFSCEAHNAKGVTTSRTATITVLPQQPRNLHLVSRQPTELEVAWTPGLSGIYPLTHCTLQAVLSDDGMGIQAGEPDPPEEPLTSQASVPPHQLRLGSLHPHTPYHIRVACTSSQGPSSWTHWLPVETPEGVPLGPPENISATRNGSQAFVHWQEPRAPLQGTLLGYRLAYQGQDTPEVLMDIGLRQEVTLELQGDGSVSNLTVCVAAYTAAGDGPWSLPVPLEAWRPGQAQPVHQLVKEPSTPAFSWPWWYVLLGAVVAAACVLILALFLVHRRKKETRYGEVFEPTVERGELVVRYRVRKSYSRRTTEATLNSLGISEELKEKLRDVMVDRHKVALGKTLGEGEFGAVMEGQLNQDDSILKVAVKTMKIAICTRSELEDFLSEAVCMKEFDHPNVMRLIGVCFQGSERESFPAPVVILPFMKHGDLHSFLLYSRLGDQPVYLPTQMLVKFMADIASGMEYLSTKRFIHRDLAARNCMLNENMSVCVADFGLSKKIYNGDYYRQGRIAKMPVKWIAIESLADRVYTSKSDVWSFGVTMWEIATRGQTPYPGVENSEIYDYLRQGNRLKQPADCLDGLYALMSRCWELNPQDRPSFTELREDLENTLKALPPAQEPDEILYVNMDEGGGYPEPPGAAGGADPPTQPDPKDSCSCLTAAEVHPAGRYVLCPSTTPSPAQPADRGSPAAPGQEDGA
Description: Inhibition of AXL (unknown origin) by LC-MS analysis.

In data set [3] the target is T2, Receptor-type tyrosine-protein kinase FLT3 (Homo sapiens, UniProt P36888).
T2 sequence (P36888 whole entry): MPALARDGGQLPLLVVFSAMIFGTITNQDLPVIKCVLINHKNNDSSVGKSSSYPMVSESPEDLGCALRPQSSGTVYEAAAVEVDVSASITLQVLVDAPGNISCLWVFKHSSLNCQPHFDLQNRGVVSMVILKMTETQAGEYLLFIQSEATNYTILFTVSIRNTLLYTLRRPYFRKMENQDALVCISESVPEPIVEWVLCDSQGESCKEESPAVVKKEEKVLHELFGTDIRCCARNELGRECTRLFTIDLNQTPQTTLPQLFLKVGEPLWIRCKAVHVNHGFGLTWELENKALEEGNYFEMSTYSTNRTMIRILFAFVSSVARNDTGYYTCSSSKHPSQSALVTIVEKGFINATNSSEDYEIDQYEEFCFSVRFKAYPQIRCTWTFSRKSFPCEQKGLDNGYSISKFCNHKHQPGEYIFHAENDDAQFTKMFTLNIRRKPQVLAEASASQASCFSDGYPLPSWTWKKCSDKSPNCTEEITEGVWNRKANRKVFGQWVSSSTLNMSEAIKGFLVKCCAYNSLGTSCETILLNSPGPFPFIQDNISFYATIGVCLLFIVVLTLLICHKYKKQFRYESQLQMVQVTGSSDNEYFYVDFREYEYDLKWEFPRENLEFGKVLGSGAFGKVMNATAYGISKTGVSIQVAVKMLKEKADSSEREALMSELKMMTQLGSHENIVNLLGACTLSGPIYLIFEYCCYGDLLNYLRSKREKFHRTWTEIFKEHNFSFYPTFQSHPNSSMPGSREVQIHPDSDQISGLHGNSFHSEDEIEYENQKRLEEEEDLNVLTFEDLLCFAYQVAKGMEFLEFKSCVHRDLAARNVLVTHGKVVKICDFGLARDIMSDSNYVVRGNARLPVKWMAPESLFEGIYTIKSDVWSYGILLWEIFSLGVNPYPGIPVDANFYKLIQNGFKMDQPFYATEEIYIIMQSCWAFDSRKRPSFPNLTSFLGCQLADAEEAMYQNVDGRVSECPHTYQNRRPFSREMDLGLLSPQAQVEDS
Description: Inhibition of FLT3 (unknown origin) by LC-MS analysis.

Data set [4] deals with T3, Tyrosine-protein kinase Mer (Homo sapiens, UniProt Q12866).
T3 sequence (Q12866 whole entry): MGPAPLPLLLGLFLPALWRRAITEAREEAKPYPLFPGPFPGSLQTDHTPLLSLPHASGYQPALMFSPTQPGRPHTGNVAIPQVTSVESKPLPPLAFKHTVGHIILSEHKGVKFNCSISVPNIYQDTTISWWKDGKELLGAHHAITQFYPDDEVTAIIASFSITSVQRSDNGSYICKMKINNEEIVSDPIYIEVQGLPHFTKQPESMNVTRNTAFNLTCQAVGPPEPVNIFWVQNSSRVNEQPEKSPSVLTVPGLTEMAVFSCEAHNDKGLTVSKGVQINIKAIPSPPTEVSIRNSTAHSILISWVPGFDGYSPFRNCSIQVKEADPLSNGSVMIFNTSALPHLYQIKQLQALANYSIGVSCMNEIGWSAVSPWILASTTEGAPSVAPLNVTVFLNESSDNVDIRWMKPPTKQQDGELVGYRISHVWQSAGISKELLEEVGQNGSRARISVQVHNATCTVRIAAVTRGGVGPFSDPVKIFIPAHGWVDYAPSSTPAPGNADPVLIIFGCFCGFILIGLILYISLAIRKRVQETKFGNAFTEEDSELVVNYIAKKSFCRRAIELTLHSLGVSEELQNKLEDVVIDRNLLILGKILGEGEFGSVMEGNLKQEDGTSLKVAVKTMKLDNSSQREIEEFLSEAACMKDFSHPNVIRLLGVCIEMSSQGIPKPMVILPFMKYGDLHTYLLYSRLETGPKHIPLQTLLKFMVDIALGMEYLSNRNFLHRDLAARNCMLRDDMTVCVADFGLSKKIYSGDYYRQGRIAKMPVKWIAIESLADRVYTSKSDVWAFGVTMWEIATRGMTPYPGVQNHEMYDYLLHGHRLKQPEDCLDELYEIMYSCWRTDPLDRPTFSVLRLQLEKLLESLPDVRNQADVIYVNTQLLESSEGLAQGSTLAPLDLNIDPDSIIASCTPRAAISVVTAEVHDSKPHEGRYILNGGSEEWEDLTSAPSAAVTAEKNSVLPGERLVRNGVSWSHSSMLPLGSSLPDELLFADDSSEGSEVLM
The data set can be described thus: Inhibition of MER (unknown origin) by LC-MS analysis.

Structures are written as SMILES. pIC50: −log10 of the molar value. Calls of active or inactive are those of the source. The calls are words filed in the database; no cut-off is given here.

In general, AUC refers to the area under the concentration-time curve, a measure of exposure. The low end stands for low exposure, the high end for high exposure. The GI50 is the concentration at which growth is held to half of that of the control. With `Cc1cc(-c2c(C)nn(C)c2C)cnc1-c1nnc(N(C)Cc2ccc3ncc(-c4ccc(CN(C)C)cc4)n3c2)o1`, the result with MC-38 was Active. This molecule also yielded an exposure (AUC) at 24 h in data set [1] of 71 µM·h. In addition, the GI50 with BaF3 is 3980 nM.

Usually pIC50 stands for the IC50 on a negative log10 scale, so that one unit is a factor of ten. High values mean a low IC50, low ones a high IC50. Regarding `Cc1cc(-c2c(C)nn(C)c2C)ccc1-c1nnc(N(C)Cc2ccc3nccn3c2)o1`, the figures for the negative-log IC50 (pIC50) in data set [2], in data set [3] and in data set [4] were 7.10, 4.80 and 8.50, respectively. In data set [1], the AUC at 24 h is 295 µM·h.

Consider `Cc1cc(-c2c(C)nn(C)c2C)cnc1-c1nnc(N(C)Cc2ccc3nccn3c2)o1`, for which the negative-log IC50 (pIC50) in data set [2] was 6.00; in data set [3], 4.70; in data set [4] it was 7.00.
